Values quoted from earlier work as cited in patent publication US12016331B2, “Microemulsions and uses thereof as delivery systems” (ARCHER DANIELS MIDLAND COMPANY, priority 2012, dated 2024).

| SMILES | LD 50 value, dermal toxicity |
| --- | --- |
| CC(O)C(=O)O (centres unmarked) [lactic acid] | greater than 3000 mg/Kg |
| CCC(=O)O [propionic acid] | 500 mg/kg |
